One experiment deals with T1, rat FAAH (Rattus norvegicus, UniProt P97612).
T1 sequence (P97612 1-579): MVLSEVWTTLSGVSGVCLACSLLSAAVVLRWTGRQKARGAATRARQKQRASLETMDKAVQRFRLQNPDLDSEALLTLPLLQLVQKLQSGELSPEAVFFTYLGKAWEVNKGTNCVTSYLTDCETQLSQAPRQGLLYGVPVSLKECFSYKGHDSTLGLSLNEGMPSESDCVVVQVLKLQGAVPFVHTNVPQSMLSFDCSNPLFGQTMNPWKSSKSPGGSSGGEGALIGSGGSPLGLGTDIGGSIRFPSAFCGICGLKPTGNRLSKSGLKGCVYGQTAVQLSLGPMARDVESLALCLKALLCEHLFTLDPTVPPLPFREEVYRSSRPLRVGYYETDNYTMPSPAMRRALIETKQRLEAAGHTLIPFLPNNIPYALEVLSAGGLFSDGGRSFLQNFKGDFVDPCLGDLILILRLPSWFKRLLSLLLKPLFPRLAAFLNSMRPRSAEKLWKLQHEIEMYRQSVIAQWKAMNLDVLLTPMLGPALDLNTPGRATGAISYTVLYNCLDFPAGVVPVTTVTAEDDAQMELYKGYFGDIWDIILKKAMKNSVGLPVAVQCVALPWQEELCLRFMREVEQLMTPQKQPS
Briefly: Assay Method 2: FAAH assay, 3H-anandamide hydrolysis in homogenate of SK-N-MC cells transfected with rat FAAH. It is filed as biochemical. The conditions noted are these: average of results, > = solubility limit or highest concentration tested. A digest of the protocol: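 Read-out is scintillation counting of [3H]-ethanolamine passing through activated charcoal, after 1 h at rt with 80 nM final [3H]-AEA. Enzyme source: lysate of G418-selected SK-N-MC clones expressing rat FAAH, homogenized in Tris/EDTA/glycerol/0.02% Triton buffer, pH 9.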

In another experiment the target is T2, FAAH (Homo sapiens, UniProt O00519).
T2 sequence (O00519 1-579): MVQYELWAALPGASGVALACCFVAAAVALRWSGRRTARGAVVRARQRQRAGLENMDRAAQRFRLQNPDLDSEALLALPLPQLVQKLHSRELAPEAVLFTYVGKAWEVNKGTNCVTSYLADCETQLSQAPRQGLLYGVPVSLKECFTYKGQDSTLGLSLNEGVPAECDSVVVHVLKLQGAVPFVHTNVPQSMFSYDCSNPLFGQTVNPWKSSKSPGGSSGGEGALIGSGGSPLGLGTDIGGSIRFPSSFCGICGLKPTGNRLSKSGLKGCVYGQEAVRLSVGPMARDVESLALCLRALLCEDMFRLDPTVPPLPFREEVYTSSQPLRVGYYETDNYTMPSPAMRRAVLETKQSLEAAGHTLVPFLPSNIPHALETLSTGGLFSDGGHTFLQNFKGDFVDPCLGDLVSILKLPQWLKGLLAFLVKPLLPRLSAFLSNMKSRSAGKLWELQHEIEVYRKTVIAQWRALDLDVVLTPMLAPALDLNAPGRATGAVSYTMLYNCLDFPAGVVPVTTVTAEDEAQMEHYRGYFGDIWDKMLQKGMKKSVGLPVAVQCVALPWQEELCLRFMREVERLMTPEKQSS
Put plainly: Assay Method 1: FAAH assay, 3H-anandamide hydrolysis in homogenate of T84 cells or SK-N-MC cells transfected with human FAAH. In kind it is biochemical. As to conditions: average of results, > = solubility limit or highest concentration tested. A digest of the protocol: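 Hydrolysis of ^3H-anandamide (80 nM final, added last) was measured over 1 h at rt, using test compound with homogenate of T84 cells or human FAAH-transfected SK-N-MC cells. The homogenization buffer was 125 mM Tris, 1 mM EDTA, 0.02% Triton X-100, pH 9. Unbound labelled ethanolamine was passed through charcoal filters and scintillation-counted.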

Structures can show the parent of a compound that is named as a salt.

The term IC50 denotes the midpoint of a concentration-inhibition curve. Consider `CN(C)CC#Cc1cccc(CN2CCN(C(=O)Nc3noc4ccccc34)CC2)c1` [Example 69, N-1,2-Benzisoxazol-3-yl-4-{3-[3-(dimethylamino)prop-1-yn-1-yl]benzyl}-piperazine-1-carboxamide], for which the 50% inhibitory concentration (IC50) came out at 2000 nM at rat FAAH and 44 nM on FAAH.
In the same order, the values of `O=C(Nc1noc2ccccc12)N1CCN(Cc2ccc(OC(F)(F)F)c(Cl)c2)CC1` [Example 107, N-1,2-Benzisoxazol-3-yl-4-[3-chloro-4-(trifluoromethoxy)benzyl]-piperazine-1-carboxamide] are 37 nM and 80 nM.
In the same order, the values of `O=C(Nc1noc2ccccc12)N1CCN(Cc2cccc(C#Cc3ccc(Cl)c(Cl)c3)c2)CC1` [Example 75, N-1,2-Benzisoxazol-3-yl-4-{3-[(3,4-dichlorophenyl)ethynyl]-benzyl}-piperazine-1-carboxamide] are 110 nM and 123 nM.
In the same order, the values of `O=C(Nc1noc2ccccc12)N1CCC(Cc2ccc3c(c2)OC(F)(F)O3)CC1` [Example 62, N-1,2-Benzisoxazol-3-yl-4-[(2,2-difluoro-1,3-benzodioxol-5-yl)methyl]piperidine-1-carboxamide] are 35 nM and 41 nM.
In the case of `O=C(Nc1cnccn1)N1CCN(Cc2cccc(OC(F)(F)F)c2)CC1` [Example 61, 4-(3-Trifluoromethoxy-benzyl)-piperazine-1-carboxylic acid pyrazin-2-ylamide trifluoroacetic acid salt], the 50% inhibitory concentration (IC50) stood at 7000 nM against rat FAAH and 2300 nM on FAAH.
In the same order, the values of `O=C(Nc1nn[nH]n1)N1CCN(Cc2ccc(Br)c(Br)c2)CC1` [Example 167, 4-(3,4-Dibromobenzyl)-N-1H-tetrazol-5-ylpiperazine-1-carboxamide] are 80 nM and 340 nM.
In the same order, the values of `O=C(Nc1noc2ccccc12)N1CCN(Cc2cccc(OCc3ccccc3)c2)CC1` [Example 99, N-1,2-Benzisoxazol-3-yl-4-[3-(benzyloxy)benzyl]piperazine-1-carboxamide] are 260 nM and 16 nM.
In the same order, the values of `O=C(Nc1nnn[nH]1)N1CCN(Cc2cnc3ccccc3c2)CC1` [Example 165, 4-(Quinolin-3-ylmethyl)-N-1H-tetrazol-5-ylpiperazine-1-carboxamide] are 6000 nM and 8000 nM.
With `O=C(Nc1noc2ccccc12)N1CCN(Cc2cccc(C#Cc3cc(Cl)cc(Cl)c3)c2)CC1` [Example 83, N-1,2-Benzisoxazol-3-yl-4-{3-[(3,5-dichlorophenyl)ethynyl]benzyl}-piperazine-1-carboxamide], the IC50 on rat FAAH is 20 nM; against FAAH, 35 nM.
In the same order, the values of `O=C(Nc1cnccn1)N1CCN(Cc2cccc(Oc3cccc(C(F)(F)F)c3)c2)CC1` [Example 60, 4-[3-(3-Trifluoromethyl-phenoxy)-benzyl]-piperazine-1-carboxylic acid pyrazin-2-ylamide trifluoroacetic acid salt] are 16 nM and 166 nM.
Taken in the same sequence, the figures for `O=C(Nc1noc2ccccc12)N1CCN(Cc2cccc(C#Cc3ccccc3OC(F)(F)F)c2)CC1` [Example 82, N-1,2-Benzisoxazol-3-yl-4-(3-{[2-(trifluoromethoxy)phenyl]-ethynyl}benzyl)-piperazine-1-carboxamide] were 256 nM and 272 nM.
In the same order, the values of `Cc1cnc(NC(=O)N2CCN(Cc3cccc(C#Cc4ccccc4Cl)c3)CC2)cn1` [Example 80, 4-{3-[(2-Chlorophenyl)ethynyl]benzyl}-N-(5-methylpyrazin-2-yl)piperazine-1-carboxamide] are 4000 nM and 5000 nM.
On to `O=C(Nc1nn[nH]n1)N1CCN(Cc2ccc3cc[nH]c3c2)CC1` [Example 178, 4-(1H-Indol-6-ylmethyl)-piperazine-1-carboxylic acid (2H-tetrazol-5-yl)-amide], for which the 50% inhibitory concentration (IC50) against rat FAAH and against FAAH was > 10000 nM each time.
With `O=C(Nc1cnccn1)N1CCN(Cc2cc3ccccc3o2)CC1` [Example 230, 4-Benzofuran-2-ylmethyl-piperazine-1-carboxylic acid pyrazin-2-ylamide], the IC50 amounted to 6000 nM at rat FAAH and 4000 nM against FAAH.
Taken in the same sequence, the figures for `O=C(Nc1noc2ccccc12)N1CCN(Cc2cnc3ccccc3c2)CC1` [Example 117, N-1,2-Benzisoxazol-3-yl-4-(quinolin-3-ylmethyl)piperazine-1-carboxamide] were 440 nM and 130 nM.
On to `N#Cc1cccc(Oc2cccc(CN3CCN(C(=O)Nc4cnccn4)CC3)c2)c1` [Example 235, 4-[3-(3-Cyanophenoxy)benzyl]-N-pyrazin-2-ylpiperazine-1-carboxamide], for which the half-maximal inhibitory concentration (IC50) came to 6000 nM at rat FAAH and 600 nM on FAAH.
For the molecule `O=C(Nc1noc2ccccc12)N1CCN(Cc2ccc(Br)cc2)CC1` [Example 120, N-1,2-Benzisoxazol-3-yl-4-(4-bromobenzyl)piperazine-1-carboxamide], the IC50 at rat FAAH is 120 nM; on FAAH, 80 nM.
With `O=C(Nc1noc2ccccc12)N1CCN(Cc2cccc(Oc3ccc(F)c(C(F)(F)F)c3)c2)CC1` [Example 28, 4-[3-(4-Fluoro-3-trifluoromethyl-phenoxy)-benzyl]-piperazine-1-carboxylic acid benzo[d]isoxazol-3-ylamide trifluoroacetic acid salt], the IC50 against rat FAAH is 17 nM; on FAAH, 95 nM.
Taken in the same sequence, the figures for `O=C(Nc1cccc2nsnc12)N1CCN(Cc2cccc(OC(F)(F)F)c2)CC1` [Example 41, 4-(3-Trifluoromethoxy-benzyl)-piperazine-1-carboxylic acid benzo[1,2,5]thiadiazol-4-ylamide trifluoroacetic acid salt] were 141 nM and 48 nM.
In the same order, the values of `O=C(Nc1cnccn1)N1CCN(Cc2ccc(Cl)c(Cl)c2)CC1` [Example 220, 4-(3,4-Dichlorobenzyl)-N-pyrazin-2-ylpiperazine-1-carboxamide] are 430 nM and 320 nM.
Taken in the same sequence, the figures for `O=C(Nc1cccnn1)N1CCN(Cc2ccc3ccccc3n2)CC1` [Example 198, N-Pyridazin-3-yl-4-(quinolin-2-ylmethyl)piperazine-1-carboxamide] were 6000 nM and 390 nM.
Take `O=C(Nc1cnccn1)N1CCN(Cc2ccc3ccccc3n2)CC1` [Example 239, N-Pyrazin-2-yl-4-(quinolin-2-ylmethyl)piperazine-1-carboxamide]: the IC50 on rat FAAH is 6000 nM; on FAAH, 700 nM.
Regarding `O=C(Nc1noc2ccccc12)N1CCN(Cc2ccc(Cl)c(OC(F)(F)F)c2)CC1` [Example 105, N-1,2-Benzisoxazol-3-yl-4-[4-chloro-3-(trifluoromethoxy)benzyl]-piperazine-1-carboxamide], the half-inhibitory concentration (IC50) at rat FAAH was determined as 13 nM; against FAAH, 100 nM.
Taken in the same sequence, the figures for `O=C(Nc1nn[nH]n1)N1CCN(Cc2cccc(Oc3ccc(F)c(C(F)(F)F)c3)c2)CC1` [Example 185, 4-{3-[4-Fluoro-3-(trifluoromethyl)phenoxy]benzyl}-N-2H-tetrazol-5-ylpiperazine-1-carboxamide] were 440 nM and 450 nM.
Taken in the same sequence, the figures for `O=C(Nc1cc[nH]n1)N1CCN(Cc2cccc(Oc3cccc(C(F)(F)F)c3)c2)CC1` [Example 55, 4-[3-(3-Trifluoromethyl-phenoxy)-benzyl]-piperazine-1-carboxylic acid (1H-pyrazol-3-yl)-amide trifluoroacetic acid salt] were 764 nM and 7750 nM.
In the same order, the values of `O=C(Nc1noc2ccccc12)N1CCN(Cc2cccc(Oc3ccccn3)c2)CC1` [Example 96, N-1,2-Benzisoxazol-3-yl-4-[3-(pyridin-2-yloxy)benzyl]piperazine-1-carboxamide] are 1100 nM and 200 nM.

(Values after US20090062294A1, “HETEROARYL-SUBSTITUTED UREA MODULATORS OF FATTY ACID AMIDE HYDROLASE” (priority 2007, published 2009).)
